From ChEMBL document CHEMBL1201862, “PubChem BioAssay data set” (2004)
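96-well plates; 48 h exposure; 5 concentrations. Endpoints by linear interpolation between flanking doses. Not reached: highest tested concentration assigned. GI50: concentration for 50% inhibition of growth.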 The source made the active and inactive calls. No stated cut-off is given here; in the data, active = GI50 up to about 1.1 µM and inactive = higher.

Legend:
Assay in all cases: inhibition of tumour cell growth, NCI panel, 48 h
DMS-114 = test system: DMS-114
DMS-273 = test system: DMS-273
HOP-18 = test system: HOP-18
LXFL 529 = test system: LXFL 529
M19-MEL = test system: M19-MEL
RXF 631 = test system: RXF 631
SNB-78 = test system: SNB-78

Measured: GI50

O=C1C=C(c2ccccc2)NC1(c1ccccc1)c1cc(-c2ccccc2)[nH]c1-c1ccccc1 (stereo not given)
inactive: DMS-114 > 100 µM | DMS-273 > 100 µM | HOP-18 > 100 µM | LXFL 529 > 100 µM | M19-MEL > 100 µM | RXF 631 > 100 µM | SNB-78 > 100 µM

CC1=C(NC(=O)C(=O)NNC(=O)c2ccncc2)C(=O)c2ccccc2C1=O
inactive: DMS-114 4.76 µM | DMS-273 5.48 µM | HOP-18 10.5 µM | LXFL 529 14.6 µM | M19-MEL 1.64 µM | RXF 631 40.4 µM | SNB-78 14.5 µM

O=C1C(Cl)=C(Cl)C(=O)N1c1cccc(C(F)(F)F)c1
inactive: DMS-114 > 100 µM | DMS-273 > 100 µM | HOP-18 > 100 µM | LXFL 529 > 100 µM | M19-MEL > 100 µM | RXF 631 > 100 µM | SNB-78 > 100 µM

CC(C)N(C(=O)C12C3C4C1C1C2C3C41C(=O)N(C(C)C)C(C)C)C(C)C (stereo not given)
inactive: DMS-114 > 50 µM | DMS-273 > 50 µM | LXFL 529 > 50 µM | M19-MEL > 50 µM | RXF 631 > 50 µM | SNB-78 > 50 µM

CC(=O)N1CC2Nc3ccccc3C2CC1CO (stereo not given)
inactive: DMS-114 > 100 µM | DMS-273 > 100 µM | LXFL 529 > 100 µM | M19-MEL > 100 µM | RXF 631 > 100 µM | SNB-78 > 100 µM

O=C1/C(=C/c2ccccc2)CN(C(=O)Oc2ccccc2)C/C1=C\c1ccccc1
inactive: DMS-114 17.4 µM | DMS-273 23.1 µM | HOP-18 > 100 µM | LXFL 529 50.6 µM | M19-MEL 65.5 µM | SNB-78 20.4 µM

CC1(C)Cc2c(oc3ncnc(N)c23)CS1
inactive: DMS-114 > 100 µM | DMS-273 > 100 µM | LXFL 529 > 100 µM | M19-MEL > 100 µM | RXF 631 > 100 µM | SNB-78 > 100 µM

COC(=O)NC12CC3CC(CC(F)(C3)C1)C2
inactive: DMS-273 > 100 µM | M19-MEL > 100 µM | RXF 631 > 100 µM | SNB-78 > 100 µM

CCOC(C)OCC#CCCBr (stereo not given)
inactive: DMS-114 79.1 µM | DMS-273 > 100 µM | HOP-18 > 100 µM | LXFL 529 > 100 µM | M19-MEL > 100 µM | SNB-78 > 100 µM

CCOC(=O)[C@]12C3C=CC(C3)C1C(=O)C1OC12 (stereo not given in full)
inactive: DMS-114 > 100 µM | DMS-273 > 100 µM | HOP-18 > 100 µM | LXFL 529 > 100 µM | M19-MEL > 100 µM | RXF 631 > 100 µM | SNB-78 > 100 µM

Cc1c(C(=O)/C=C/c2ccc3c(c2)OCO3)[n+]([O-])c2ccccc2[n+]1[O-]
inactive: DMS-114 21.4 µM | DMS-273 22.6 µM | HOP-18 86.7 µM | LXFL 529 22.2 µM | M19-MEL 35.2 µM | RXF 631 53.6 µM | SNB-78 36.2 µM

Cc1cccc(N(CC(=O)O)S(=O)(=O)c2ccccc2)c1
inactive: DMS-273 > 100 µM | HOP-18 > 100 µM | LXFL 529 > 100 µM | M19-MEL > 100 µM | RXF 631 > 100 µM

O=c1c(O)c(-c2ccc(O)c(O)c2)oc2cc(O)ccc12 [FISETIN]
inactive: DMS-114 15.2 µM | DMS-273 11.5 µM | HOP-18 21.2 µM | LXFL 529 15 µM | M19-MEL 26 µM | SNB-78 20.1 µM
